Experimental data: ChEMBL document CHEMBL1149795, “5,7-Dihydroxychromone-2-carboxylic acid and it's transition-metal (Mn and Zn) chelates as non-thiol radioprotective agents” (Eur J Med Chem, 2008)

Experiments:
[1] = Toxicity against sc dosed NMRI mouse; type: organism-based; settings: in vivo
Mus musculus [2] = assay: Radioprotective activity against gamma-irradiation in NMRI mouse assessed as survival at 1.0 mmol/kg, sc administered 24 hrs prior to irradiation measured after 30 days; type: functional; settings: light or radiation study
Mus musculus [3] = assay: Radioprotective activity against gamma-irradiation in NMRI mouse assessed as survival at 0.5 mmol/kg, sc administered 24 hrs prior to irradiation measured after 30 days; type: functional; settings: light or radiation study
Mus musculus [4] = assay: Radioprotective activity against gamma-irradiation in NMRI mouse assessed as survival at 0.5 mmol/kg, sc administered 1 hr prior to irradiation measured after 30 days; type: functional; settings: light or radiation study

| SMILES | LD50 [1] [mg/kg] | survival at 1000 µmol/kg (Mus musculus [2]) [%] | survival at 500 µmol/kg (Mus musculus [3]) [%] | survival at 500 µmol/kg (Mus musculus [4]) [%] |
| --- | --- | --- | --- | --- |
| O=C(O)c1cc(=O)c2c(O)cc(O)cc2o1 | > 1500 | 50 | 35 | – |
| NCCCNCCSP(=O)(O)O [AMIFOSTINE] | 609 | – | – | 81 |
